Molecules are shown by their SMILES. “Also recorded” adds a separate entry of the source.

The record followed here is patent publication US12110295B2, “WD40 repeat domain protein 5 (WDR5) degradation/disruption compounds and methods of use” (Icahn School of Medicine at Mount Sinai, priority 2018, dated 2024).

The first test has as its system MIAPACA2 cells. The experiment in a line: MTT cell proliferation assay in MIAPACA2 cells. Format: cell-based. The settings on record: 0.01, 0.03, 0.1, 0.5, 1, 5 and 10 μM, 6 days, FIG. 11. The method, then:
Assessment of the cell proliferation effects of WDR5 degraders XF056-132, XF056-173 and XF067-67 in MIAPACA2 cells (FIG. 11). MIAPACA2 cells were treated with DMSO or indicated compounds at 0.01 μM, 0.03 μM, 0.1 μM, 0.5 μM, 1 μM, 5 μM, and 10 μM for 6 days. MTT assay was used for detecting cell proliferation effects.
MIAPACA2 and Hela cells were cultured in DMEM supplemented with 10% FBS and 1% Penicillin/Streptomycin.
For orientation: Tetrazolium dyes change colour on reduction, which living cells bring about.
On to `Cc1ncsc1-c1ccc([C@H](C)NC(=O)[C@@H]2C[C@@H](O)CN2C(=O)[C@@H](NC(=O)CNC(=O)c2ccc(F)c(-c3ccc(N4C[C@@H](C)N(C)[C@@H](C)C4)c(NC(=O)c4c[nH]c(=O)cc4C(F)(F)F)c3)c2)C(C)(C)C)cc1` [XF067-67, N-(2′-fluoro-5′-((2-(((S)-1-((2S,4R)-4-hydroxy-2-(((S)-1-(4-(4-methylthiazol-5-yl)phenyl)ethyl)carbamoyl)pyrrolidin-1-yl)-3,3-dimethyl-1-oxobutan-2-yl)amino)-2-oxoethyl)carbamoyl)-4-((3S,5R)-3,4,5-trimethylpiperazin-1-yl)-[1,1′-biphenyl]-3-yl)-6-oxo-4-(trifluoromethyl)-1,6-dihydropyridine-3-carboxamide], for which the “proliferation of MIAPACA2 cells” value is listed as “significantly decreased the cell proliferation; also recorded: significantly reduced the proliferation of MIAPACA2 cells”.

Still in this test, the particulars now being: MIAPACA2 cells, 6 days, FIG. 11.
With `Cc1ncsc1-c1ccc([C@H](C)NC(=O)[C@@H]2C[C@@H](O)CN2C(=O)[C@@H](NC(=O)CNC(=O)c2ccc(F)c(-c3ccc(N4C[C@@H](C)N(C)[C@@H](C)C4)c(NC(=O)c4c[nH]c(=O)cc4C(F)(F)F)c3)c2)C(C)(C)C)cc1` [XF067-67, N-(2′-fluoro-5′-((2-(((S)-1-((2S,4R)-4-hydroxy-2-(((S)-1-(4-(4-methylthiazol-5-yl)phenyl)ethyl)carbamoyl)pyrrolidin-1-yl)-3,3-dimethyl-1-oxobutan-2-yl)amino)-2-oxoethyl)carbamoyl)-4-((3S,5R)-3,4,5-trimethylpiperazin-1-yl)-[1,1′-biphenyl]-3-yl)-6-oxo-4-(trifluoromethyl)-1,6-dihydropyridine-3-carboxamide], the “cell killing effect, rank among the 3 compounds” value is reported as “the best cell killing effect among the 3 compounds”.

For another test, the target named is WDR5 (Homo sapiens, UniProt P61964). Briefly: Screening of putative WDR5 degraders by Western blot in MV4;11 and/or MIAPACA2 cells. The test is classed as cell-based. Further details: After WDR5 degrader treatment, cells were collected and lysed; endogenous in cells; host or cells: MV4;11 and/or MIAPACA2. The settings on record: summary of screening, FIGS. 6-10. An outline of the steps:
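MV4;11 (1×10^6/well) or MIAPACA2 (1×10^5/well) cells treated 18 h with compound at paired doses between 0.1 and 10 μM, DMSO as control. Total lysates immunoblotted for WDR5 with vinculin, tubulin or GAPDH loading controls; fluorescent secondary detection.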
For the compound `Cc1ncsc1-c1ccc(CNC(=O)[C@@H]2C[C@@H](O)CN2C(=O)[C@@H](NC(=O)COCC(=O)N2CC=C(c3cc(NC(=O)c4c[nH]c(=O)cc4C(F)(F)F)c(N4C[C@@H](C)N(C)[C@@H](C)C4)cc3F)CC2)C(C)(C)C)cc1` [XF078-30, N-(4-fluoro-5-(1-(2-(2-(((S)-1-((2S,4R)-4-hydroxy-2-((4-(4-methylthiazol-5-yl)benzyl)carbamoyl)pyrrolidin-1-yl)-3,3-dimethyl-1-oxobutan-2-yl)amino)-2-oxoethoxy)acetyl)-1,2,3,6-tetrahydropyridin-4-yl)-2-((3S,5R)-3,4,5-trimethylpiperazin-1-yl)phenyl)-6-oxo-4-(trifluoromethyl)-1,6-dihydropyridine-3-carboxamide], the “effective degradation of WDR5 in MV4;11 and/or MIAPACA2 cells” value (from here on “effective degradation of WDR5”) is “able to effectively degrade WDR5”.
Same read-out and setting: the entry for `Cc1ncsc1-c1ccc(CNC(=O)[C@@H]2C[C@@H](O)CN2C(=O)[C@@H](NC(=O)CCCCCCCCCC(=O)N2CCN(Cc3cnc(N4CC=C(c5cc(NC(=O)c6c[nH]c(=O)cc6C(F)(F)F)c(N6C[C@@H](C)N(C)[C@@H](C)C6)cc5F)CC4)nc3)CC2)C(C)(C)C)cc1` [XF078-148, N-(4-fluoro-5-(1-(5-((4-(11-(((S)-1-((2S,4R)-4-hydroxy-2-((4-(4-methylthiazol-5-yl)benzyl)carbamoyl)pyrrolidin-1-yl)-3,3-dimethyl-1-oxobutan-2-yl)amino)-11-oxoundecanoyl)piperazin-1-yl)methyl)pyrimidin-2-yl)-1,2,3,6-tetrahydropyridin-4-yl)-2-((3S,5R)-3,4,5-trimethylpiperazin-1-yl)phenyl)-6-oxo-4-(trifluoromethyl)-1,6-dihydropyridine-3-carboxamide] is “able to effectively degrade WDR5”; for `Cc1ncsc1-c1ccc(CNC(=O)[C@@H]2C[C@@H](O)CN2C(=O)[C@@H](NC(=O)CCOCCOCCOCCC(=O)N2CCN(Cc3cnc(N4CC=C(c5cc(NC(=O)c6c[nH]c(=O)cc6C(F)(F)F)c(N6C[C@@H](C)N(C)[C@@H](C)C6)cc5F)CC4)nc3)CC2)C(C)(C)C)cc1` [XF078-137, N-(4-fluoro-5-(1-(5-((4-((S)-15-((2S,4R)-4-hydroxy-2-((4-(4-methylthiazol-5-yl)benzyl)carbamoyl)pyrrolidine-1-carbonyl)-16,16-dimethyl-13-oxo-4,7,10-trioxa-14-azaheptadecanoyl)piperazin-1-yl)methyl)pyrimidin-2-yl)-1,2,3,6-tetrahydropyridin-4-yl)-2-((3S,5R)-3,4,5-trimethylpiperazin-1-yl)phenyl)-6-oxo-4-(trifluoromethyl)-1,6-dihydropyridine-3-carboxamide] it is “able to effectively degrade WDR5”; for `C[C@@H]1CN(c2ccc(-c3cc(CN4CCN(CCNC(=O)CCCCCCNc5cccc6c5C(=O)N(C5CCC(=O)NC5=O)C6=O)CC4)ccc3F)cc2NC(=O)c2c[nH]c(=O)cc2C(F)(F)F)C[C@H](C)N1C` (stereo partly drawn) [XF078-23, N-(5′-((4-(2-(7-((2-(2,6-dioxopiperidin-3-yl)-1,3-dioxoisoindolin-4-yl)amino)heptanamido)ethyl)piperazin-1-yl)methyl)-2′-fluoro-4-((3S,5R)-3,4,5-trimethylpiperazin-1-yl)-[1,1′-biphenyl]-3-yl)-6-oxo-4-(trifluoromethyl)-1,6-dihydropyridine-3-carboxamide] it is “able to effectively degrade WDR5”.
Regarding `Cc1ncsc1-c1ccc(CNC(=O)[C@@H]2C[C@@H](O)CN2C(=O)[C@@H](NC(=O)CCCCCCC(=O)N2CCN(Cc3cnc(N4CC=C(c5cc(NC(=O)c6c[nH]c(=O)cc6C(F)(F)F)c(N6C[C@@H](C)N(C)[C@@H](C)C6)cc5F)CC4)nc3)CC2)C(C)(C)C)cc1` [XF078-145, N-(4-fluoro-5-(1-(5-((4-(8-(((S)-1-((2S,4R)-4-hydroxy-2-((4-(4-methylthiazol-5-yl)benzyl)carbamoyl)pyrrolidin-1-yl)-3,3-dimethyl-1-oxobutan-2-yl)amino)-8-oxooctanoyl)piperazin-1-yl)methyl)pyrimidin-2-yl)-1,2,3,6-tetrahydropyridin-4-yl)-2-((3S,5R)-3,4,5-trimethylpiperazin-1-yl)phenyl)-6-oxo-4-(trifluoromethyl)-1,6-dihydropyridine-3-carboxamide], the “effective degradation of WDR5” value is reported as “able to effectively degrade WDR5”.
As to `Cc1ncsc1-c1ccc(CNC(=O)[C@@H]2C[C@@H](O)CN2C(=O)[C@@H](NC(=O)COCCOCCOCC(=O)N2CCN(c3ncc(-c4cc(NC(=O)c5ccc(F)cc5C(F)(F)F)c(N5C[C@@H](C)N(C)[C@@H](C)C5)cc4F)cn3)CC2)C(C)(C)C)cc1` [XF078-103, (2S,4R)-1-((S)-2-(tert-butyl)-14-(4-(5-(2-fluoro-5-(4-fluoro-2-(trifluoromethyl)benzamido)-4-((3S,5R)-3,4,5-trimethylpiperazin-1-yl)phenyl)pyrimidin-2-yl)piperazin-1-yl)-4,14-dioxo-6,9,12-trioxa-3-azatetradecanoyl)-4-hydroxy-N-(4-(4-methylthiazol-5-yl)benzyl)pyrrolidine-2-carboxamide], the “effective degradation of WDR5” value is reported as “able to effectively degrade WDR5”.
On the same count and under the same terms, the entry for `Cc1ncsc1-c1ccc(CNC(=O)[C@@H]2C[C@@H](O)CN2C(=O)[C@@H](NC(=O)CCOCCC(=O)N2CCN(Cc3cnc(N4CC=C(c5cc(NC(=O)c6c[nH]c(=O)cc6C(F)(F)F)c(N6C[C@@H](C)N(C)[C@@H](C)C6)cc5F)CC4)nc3)CC2)C(C)(C)C)cc1` [XF078-133, N-(4-fluoro-5-(1-(5-((4-(3-(3-(((S)-1-((2S,4R)-4-hydroxy-2-((4-(4-methylthiazol-5-yl)benzyl)carbamoyl)pyrrolidin-1-yl)-3,3-dimethyl-1-oxobutan-2-yl)amino)-3-oxopropoxy)propanoyl)piperazin-1-yl)methyl)pyrimidin-2-yl)-1,2,3,6-tetrahydropyridin-4-yl)-2-((3S,5R)-3,4,5-trimethylpiperazin-1-yl)phenyl)-6-oxo-4-(trifluoromethyl)-1,6-dihydropyridine-3-carboxamide] is “able to effectively degrade WDR5”.
Regarding `Cc1ncsc1-c1ccc(CNC(=O)[C@@H]2C[C@@H](O)CN2C(=O)[C@@H](NC(=O)CCC(=O)N2CCN(Cc3cnc(N4CC=C(c5cc(NC(=O)c6c[nH]c(=O)cc6C(F)(F)F)c(N6C[C@@H](C)N(C)[C@@H](C)C6)cc5F)CC4)nc3)CC2)C(C)(C)C)cc1` [XF078-141, N-(4-fluoro-5-(1-(5-((4-(4-(((S)-1-((2S,4R)-4-hydroxy-2-((4-(4-methylthiazol-5-yl)benzyl)carbamoyl)pyrrolidin-1-yl)-3,3-dimethyl-1-oxobutan-2-yl)amino)-4-oxobutanoyl)piperazin-1-yl)methyl)pyrimidin-2-yl)-1,2,3,6-tetrahydropyridin-4-yl)-2-((3S,5R)-3,4,5-trimethylpiperazin-1-yl)phenyl)-6-oxo-4-(trifluoromethyl)-1,6-dihydropyridine-3-carboxamide], the “effective degradation of WDR5” value is “able to effectively degrade WDR5”.
Same read-out and setting: with `Cc1ncsc1-c1ccc(CNC(=O)[C@@H]2C[C@@H](O)CN2C(=O)[C@@H](NC(=O)CCCCCC(=O)N2CC=C(c3cc(NC(=O)c4c[nH]c(=O)cc4C(F)(F)F)c(N4C[C@@H](C)N(C)[C@@H](C)C4)cc3F)CC2)C(C)(C)C)cc1` [XF078-42, N-(4-fluoro-5-(1-(7-(((S)-1-((2S,4R)-4-hydroxy-2-((4-(4-methylthiazol-5-yl)benzyl)carbamoyl)pyrrolidin-1-yl)-3,3-dimethyl-1-oxobutan-2-yl)amino)-7-oxoheptanoyl)-1,2,3,6-tetrahydropyridin-4-yl)-2-((3S,5R)-3,4,5-trimethylpiperazin-1-yl)phenyl)-6-oxo-4-(trifluoromethyl)-1,6-dihydropyridine-3-carboxamide] the entry was “able to effectively degrade WDR5”.
